Source: ChEMBL document CHEMBL5096208, “Installation of Pargyline, a LSD1 Inhibitor, in the HDAC Inhibitory Template Culminated in the Identification of a Tractable Antiprostate Cancer Agent” (J Med Chem, 2021)
Activity calls are given as the source filed them. No cut-off for these calls is given here.

Experiments:
[1] = system: PC-3; experiment: Upregulation of acetyl-histone H3 in human PC-3 cells at 0.625 to 5 uM by Western blot analysis; assay type: functional, cell-based; conditions: dose 0.625-5 µM
[2] = C0 in Sprague-Dawley rat at 2 mg/kg, iv administered as single dose through tail vein measured upto 24 hrs post dose by UPLC-MS/MS analysis; assay type: ADME, organism-based; conditions: in vivo
[3] = molecular target: T1, Histone deacetylase 7 (Homo sapiens, UniProt Q8WUI4); experiment: Inhibition of human HDAC7 using Boc-Lys(trifluoroacetyl)-AMC as flurogenic substrate
T1 sequence (Q8WUI4 whole entry): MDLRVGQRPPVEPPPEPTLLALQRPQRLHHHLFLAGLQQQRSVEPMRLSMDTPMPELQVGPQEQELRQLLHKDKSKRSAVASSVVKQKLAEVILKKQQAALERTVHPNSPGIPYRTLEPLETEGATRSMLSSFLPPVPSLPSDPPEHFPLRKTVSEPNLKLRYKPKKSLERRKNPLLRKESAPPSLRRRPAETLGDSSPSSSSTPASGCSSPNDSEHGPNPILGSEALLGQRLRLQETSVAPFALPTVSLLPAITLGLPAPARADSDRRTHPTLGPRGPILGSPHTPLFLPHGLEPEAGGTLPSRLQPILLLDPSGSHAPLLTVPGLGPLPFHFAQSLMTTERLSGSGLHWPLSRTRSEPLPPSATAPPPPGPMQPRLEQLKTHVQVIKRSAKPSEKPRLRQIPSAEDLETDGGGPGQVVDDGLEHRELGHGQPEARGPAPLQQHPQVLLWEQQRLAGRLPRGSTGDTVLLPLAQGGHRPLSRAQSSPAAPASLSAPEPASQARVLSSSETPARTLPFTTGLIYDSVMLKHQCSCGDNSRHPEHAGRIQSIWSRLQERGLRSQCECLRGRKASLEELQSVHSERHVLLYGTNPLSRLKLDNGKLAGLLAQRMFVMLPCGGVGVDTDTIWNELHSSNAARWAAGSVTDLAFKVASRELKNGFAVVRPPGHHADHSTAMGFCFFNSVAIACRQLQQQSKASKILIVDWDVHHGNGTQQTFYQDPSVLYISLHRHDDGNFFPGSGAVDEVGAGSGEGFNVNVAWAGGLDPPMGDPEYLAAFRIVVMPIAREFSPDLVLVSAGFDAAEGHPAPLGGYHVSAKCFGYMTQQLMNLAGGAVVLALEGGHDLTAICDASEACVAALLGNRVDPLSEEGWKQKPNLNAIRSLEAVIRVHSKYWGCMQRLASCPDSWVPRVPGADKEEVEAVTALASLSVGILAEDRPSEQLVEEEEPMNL

[4] = Oral bioavailability in Sprague-Dawley rat at 25 mg/kg formulated using SMEDDS administered once via gavage measured upto 24 hrs post dose by UPLC-MS/MS analysis; assay type: ADME, organism-based; conditions: in vivo
[5] = Clearance in Sprague-Dawley rat at 2 mg/kg, iv administered as single dose through tail vein measured upto 24 hrs post dose by UPLC-MS/MS analysis; assay type: ADME, organism-based; conditions: in vivo
[6] = system: DU-145; experiment: Induction of H3K4ME2 accumulation in human DU-145 cells at 0.5 to 10 uM incubated for 48 hrs by Western blot analysis; assay type: functional, cell-based; conditions: dose 0.5-10 µM
[7] = Metabolic stability in Sprague-Dawley rat hepatocyte assessed as intrinsic clearance at 10 uM by LC-MS/MS analysis; assay type: ADME, cell-based; conditions: hepatocytes, read-out: CLH
[8] = Metabolic stability in Beagle dog hepatocyte assessed as parent compound remaining at 10 uM incubated for 30 mins by LC-MS/MS analysis; assay type: ADME, cell-based, Canis lupus familiaris; conditions: hepatocytes, read-out: Stability
[9] = system: PC-3; experiment: Antiproliferative activity against human PC-3 cells assessed as cell growth inhibition incubated for 48 hrs by MTT assay; assay type: functional
[10] = molecular target: T2, Protein deacetylase HDAC6 (Homo sapiens, UniProt Q9UBN7); experiment: Inhibition of human HDAC6 (379 to 382 residues) using RHKKAc as flurogenic substrate
T2 sequence (Q9UBN7 whole entry): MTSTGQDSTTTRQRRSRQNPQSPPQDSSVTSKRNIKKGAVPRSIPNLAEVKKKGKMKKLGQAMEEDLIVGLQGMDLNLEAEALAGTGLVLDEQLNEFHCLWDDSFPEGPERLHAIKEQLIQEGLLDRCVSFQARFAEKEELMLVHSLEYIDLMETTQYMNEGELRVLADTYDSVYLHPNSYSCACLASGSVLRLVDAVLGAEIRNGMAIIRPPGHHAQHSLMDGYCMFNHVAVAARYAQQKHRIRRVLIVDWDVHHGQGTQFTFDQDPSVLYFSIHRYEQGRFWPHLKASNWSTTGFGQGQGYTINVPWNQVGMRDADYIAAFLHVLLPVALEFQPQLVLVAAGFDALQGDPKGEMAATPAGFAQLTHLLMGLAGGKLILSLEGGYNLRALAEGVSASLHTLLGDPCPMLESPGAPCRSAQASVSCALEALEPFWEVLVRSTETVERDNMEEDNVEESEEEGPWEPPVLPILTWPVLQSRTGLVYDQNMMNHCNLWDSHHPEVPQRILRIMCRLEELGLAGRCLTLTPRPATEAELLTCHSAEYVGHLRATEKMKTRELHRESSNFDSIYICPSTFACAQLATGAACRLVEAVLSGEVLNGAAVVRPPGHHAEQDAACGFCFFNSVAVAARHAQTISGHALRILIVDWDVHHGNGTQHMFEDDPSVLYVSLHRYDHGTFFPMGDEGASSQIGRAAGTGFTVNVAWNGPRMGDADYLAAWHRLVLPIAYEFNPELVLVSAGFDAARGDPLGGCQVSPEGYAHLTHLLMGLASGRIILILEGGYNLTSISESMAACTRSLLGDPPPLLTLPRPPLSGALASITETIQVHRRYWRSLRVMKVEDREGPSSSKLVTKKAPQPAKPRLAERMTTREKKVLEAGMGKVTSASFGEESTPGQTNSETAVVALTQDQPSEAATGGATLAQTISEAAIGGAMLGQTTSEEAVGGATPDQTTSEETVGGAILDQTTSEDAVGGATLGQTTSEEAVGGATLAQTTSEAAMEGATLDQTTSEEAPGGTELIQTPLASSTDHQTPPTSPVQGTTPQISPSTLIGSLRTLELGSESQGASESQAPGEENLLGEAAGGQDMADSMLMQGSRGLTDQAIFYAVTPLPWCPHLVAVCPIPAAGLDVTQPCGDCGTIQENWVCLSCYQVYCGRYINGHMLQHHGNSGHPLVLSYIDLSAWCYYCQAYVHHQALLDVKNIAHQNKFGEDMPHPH

[11] = Tmax in Sprague-Dawley rat at 25 mg/kg, po formulated using SMEDDS administered once via gavage measured upto 24 hrs post dose by UPLC-MS/MS analysis; assay type: ADME, organism-based; conditions: in vivo

C0 at 24 h [2]: 38.1 ng/mL | IC50 [3]: > 10000 nM | bioavailability [4]: 62.1% | clearance [5]: 500 mL/min/kg | CLint scaled at 10 µM [7]: 90.2 mL/min/kg | remaining at 0.5 h, 10 µM [8]: 91.6% | GI50 [9]: 330 nM | IC50 [10]: 20 nM | Tmax [11]: 54 min
Compound: C#CCN(C)Cc1cccc(NC(=O)CCCCCCC(=O)NO)c1
Activity [1]: Active | Activity [6]: Active
